# Results reported in patent publication US11203591B2, “Substituted 6-azabenzimidazole compounds” (Gilead Sciences, Inc., priority 2018, dated 2021).
# Biological target: human HPK1 (MAP4K1) (Homo sapiens (Human), UniProt Q92918)
# Assay: HPK1 IC50 Assay (TR-FRET peptide phosphorylation)
# Type: biochemical
# Settings: 0.15 nM HPK1, 10 μM ATP, 1 μM STK S1 peptide substrate; geometric mean
# Outline: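 Pre-activated, dually phosphorylated baculovirus-expressed HPK1 kinase domain (0.15 nM) preincubated 15 min with compound, then reacted 3 h at 25° C with 10 μM ATP and 1 μM STK S1 peptide in BES pH 7.0 buffer. Phosphopeptide read by TR-FRET (665/620 nm); four-parameter fit, geometric-mean IC50.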
# Chain of human HPK1 (MAP4K1) (Q92918 17-274): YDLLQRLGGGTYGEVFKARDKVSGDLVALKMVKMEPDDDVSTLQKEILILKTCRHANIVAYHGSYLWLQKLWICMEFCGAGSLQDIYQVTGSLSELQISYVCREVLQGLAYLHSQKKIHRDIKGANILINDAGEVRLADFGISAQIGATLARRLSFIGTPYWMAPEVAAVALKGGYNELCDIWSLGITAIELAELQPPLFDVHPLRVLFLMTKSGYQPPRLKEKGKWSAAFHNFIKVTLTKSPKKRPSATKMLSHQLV
row,IC50 [nM],Compound
1,0.08,"CC(C)n1cnc2cc(-c3ccc4c(c3)N([C@H]3C[C@@](C)(N5CCCCC5)C3)C(=O)C4(C)C)nc(Nc3cc(C(=O)NC4(C(F)F)CC4)c(Cl)cc3F)c21 [Example 294, 2-chloro-N-(1-(difluoromethyl)cyclopropyl)-5-((6-(3,3-dimethyl-1-((1s,3s)-3-methyl-3-(piperidin-1-yl)cyclobutyl)-2-oxoindolin-6-yl)-3-isopropyl-3H-imidazo[4,5-c]pyridin-4-yl)amino)-4-fluorobenzamide]"
2,0.05,"CC(C)n1cnc2cc(-c3ccc4c(c3)N([C@H]3C[C@@](C)(N5CCCCC5)C3)C(=O)C4(C)C)nc(Nc3cc(C(=O)NC4(CF)CC4)c(Cl)cc3F)c21 [Example 293, 2-chloro-5-((6-(3,3-dimethyl-1-((1s,3s)-3-methyl-3-(piperidin-1-yl)cyclobutyl)-2-oxoindolin-6-yl)-3-isopropyl-3H-imidazo[4,5-c]pyridin-4-yl)amino)-4-fluoro-N-(1-(fluoromethyl)cyclopropyl)benzamide]"

# Same assay, conditions: recombinant HPK1 kinase domain 0.15 nM, 10 μM ATP, 1 μM STK S1 peptide; geometric mean of multiple experiments
row,Compound,IC50 [nM]
1,"Cc1c(C(=O)NC2(C(F)F)CC2)cc(Nc2nc(-c3cnc4c(c3)N(C3CC(C)(N5CCC6C[C@H]5CO6)C3)C(=O)C4(C)C)cc3ncn(C(C)C)c23)c(F)c1F (stereo partly shown) [Example 192, 5-((6-(1-((1s,3s)-3-(6-oxa-2-azabicyclo[3.2.1]octan-2-yl)-3-methylcyclobutyl)-3,3-dimethyl-2-oxo-2,3-dihydro-1H-pyrrolo[3,2-b]pyridin-6-yl)-3-isopropyl-3H-imidazo[4,5-c]pyridin-4-yl)amino)-N-(1-(difluoromethyl)cyclopropyl)-3,4-difluoro-2-methylbenzamide]",0.1
2,CNC(=O)c1cc(Nc2nc(-c3ccc4c(c3)N([C@H]3C[C@@H](N5CCCCC5)C3)C(=O)C43CCN(C(C)=O)CC3)cc3ncn(C4CC4)c23)c(F)cc1C [Example 95],0.3
3,CNC(=O)c1cc(Nc2nc(-c3ccc4c(c3)N([C@H]3C[C@@H](N5CCCCC5)C3)CC4(C)C)cc3ncn(C(C)C)c23)ccc1C [Example 57],0.2
4,CNC(=O)c1cc(Nc2nc(-c3ccc4c(c3)N([C@H]3C[C@@H](N[C@@H]5CCOC[C@H]5C)C3)C(=O)C4(C)C)cc3ncn(C(C)C)c23)ccc1C [Example 13],0.1
5,CC[C@H](C)NC(=O)c1cc(Nc2nc(-c3ccc4c(c3)N([C@H]3C[C@@H](N5CCCCC5)C3)C(=O)C43CCN(C(C)=O)CC3)cc3ncn(C(C)C)c23)c(F)cc1C [Example 88],0.2
6,CNC(=O)c1cc(Nc2nc(-c3ccc4c(c3)N([C@H]3C[C@@H](N5C[C@H]6CC[C@@H]5C6)C3)C(=O)C43CCN(C(=O)C45CC(C4)C5)CC3)cc3ncn(C4CC4)c23)ccc1C [Example 43],0.08
7,CNC(=O)c1cc(Nc2nc(-c3cnc4c(c3)N([C@H]3C[C@@H](N5CCCCC5)C3)C(=O)C4(C)C)cc3ncn(C(C)C)c23)ccc1C [Example 18],0.4
8,CC(C)NC(=O)c1cc(Nc2nc(-c3ccc4c(c3)N([C@H]3C[C@@H](N5CCCCC5)C3)C(=O)C4(C)C)cc3ncn(C(C)C)c23)c(F)cc1Cl [Example 117],0.2
9,Cc1cc(F)c(Nc2nc(-c3cnc4c(c3)N([C@H]3C[C@@H](N5CCCCC5)C3)C(=O)C4(C)C)cc3ncn(C(C)C)c23)cc1C(=O)NC1(CF)CC1 [Example 134],0.3
10,CNC(=O)c1cc(Nc2nc(-c3ccc4c(c3)N([C@H]3C[C@@H](N5C6CCC5COC6)C3)C(=O)C4(C)C)cc3ncn(C(C)C)c23)c(F)cc1C [Example 8],0.08
11,"Cc1cc(F)c(Nc2nc(-c3ccc4c(c3)N([C@H]3C[C@@](C)(N5CCCCC5)C3)C(=O)C4(C)C)cc3ncn(C(C)C)c23)cc1C(=O)NC1(C(F)F)CC1 [Example 235, N-(1-(difluoromethyl)cyclopropyl)-5-((6-(3,3-dimethyl-1-((1s,3s)-3-methyl-3-(piperidin-1-yl)cyclobutyl)-2-oxoindolin-6-yl)-3-isopropyl-3H-imidazo[4,5-c]pyridin-4-yl)amino)-4-fluoro-2-methylbenzamide]",0.1
12,CNC(=O)c1cc(Nc2nc(-c3ccc4c(c3)N([C@H]3C[C@@H](N5CC(C)(C)C5)C3)C(=O)C4(C)C)cc3ncn(C(C)C)c23)ccc1C [Example 122],0.1
13,CCn1cnc2cc(-c3ccc4c(c3)N([C@H]3C[C@@H](N5CCCCC5)C3)C(=O)C43CCN(C(C)=O)CC3)nc(Nc3cc(C(=O)NC(C)C)c(C)cc3F)c21 [Example 54],0.4
14,CNC(=O)c1cc(Nc2nc(-c3ccc4c(c3)N([C@H]3C[C@@H](N[C@@H]5CCOC[C@@H]5C)C3)C(=O)C4(C)C)cc3ncn(C(C)C)c23)ccc1C [Example 12],0.09
15,CNC(=O)c1cc(Nc2nc(-c3ccc4c(c3)N([C@H]3C[C@@H](N5CCC(C)(C)C5)C3)C(=O)C43CCN(C(C)=O)CC3)cc3ncn(C(C)C)c23)ccc1C [Example 165],0.1
16,Cc1cc(F)c(Nc2nc(-c3ccc4c(c3)N([C@H]3C[C@@H](N5CCC[C@@H](F)C5)C3)C(=O)C4(C)C)cc3ncn(C(C)C)c23)cc1C(=O)NC(C)C [Example 110],0.2
17,CNC(=O)c1cc(Nc2nc(-c3ccc4c(c3)N([C@H]3C[C@@H](N5CCCC(C)(C)C5)C3)C(=O)C43CCN(C(C)=O)CC3)cc3ncn(C4CC4)c23)ccc1C [Example 161],0.06

# Next, values leading:
row,IC50 [nM],Compound
1,0.07,"Cc1c(C(=O)NC2(C(F)F)CC2)cc(Nc2nc(-c3ccc4c(c3)N([C@H]3C[C@@](C)(N5CCCCC5)C3)C(=O)C4(C)C)cc3ncn(C(C)C)c23)c(F)c1F [Example 236, N-(1-(Difluoromethyl)cyclopropyl)-5-((6-(3,3-dimethyl-1-((1s,3s)-3-methyl-3-(piperidin-1-yl)cyclobutyl)-2-oxoindolin-6-yl)-3-isopropyl-3H-imidazo[4,5-c]pyridin-4-yl)amino)-3,4-difluoro-2-methylbenzamide]"
2,0.1,"CCNC(=O)c1cc(Nc2nc(-c3cc4c(nc3F)C(C)(C)C(=O)N4[C@H]3C[C@@](C)(N4CCC5CC5C4)C3)cc3ncn(C(C)C)c23)c(F)c(F)c1C (stereo partly shown) [Example 255, 5-((6-(1-((1s,3s)-3-(3-azabicyclo[4.1.0]heptan-3-yl)-3-methylcyclobutyl)-5-fluoro-3,3-dimethyl-2-oxo-2,3-dihydro-1H-pyrrolo[3,2-b]pyridin-6-yl)-3-isopropyl-3H-imidazo[4,5-c]pyridin-4-yl)amino)-N-ethyl-3,4-difluoro-2-methylbenzamide]"
3,0.08,"CC(C)n1cnc2cc(-c3cnc4c(c3)N([C@H]3C[C@@](C)(N5CCC6CC6C5)C3)C(=O)C4(C)C)nc(Nc3cc(C(=O)NC4(C(F)F)CC4)c(Cl)c(F)c3F)c21 (mixture of isomers) [Example 260, 5-((6-(1-((1s,3s)-3-(3-azabicyclo[4.1.0]heptan-3-yl)-3-methylcyclobutyl)-3,3-dimethyl-2-oxo-2,3-dihydro-1H-pyrrolo[3,2-b]pyridin-6-yl)-3-isopropyl-3H-imidazo[4,5-c]pyridin-4-yl)amino)-2-chloro-N-(1-(difluoromethyl)cyclopropyl)-3,4-difluorobenzamide]"
4,0.1,Cc1c(C(=O)NC2(C(F)F)CC2)cc(Nc2nc(-c3cnc4c(c3)N([C@H]3C[C@@H](N5C[C@H]6CC[C@@H]5C6)C3)C(=O)C4(C)C)cc3ncn(C(C)C)c23)c(F)c1F [Example 64]
5,0.1,"Cc1c(C(=O)NC2(C(F)F)CC2)cc(Nc2nc(-c3cnc4c(c3)N([C@H]3C[C@@](C)(N5CCC(F)CC5)C3)C(=O)C4(C)C)cc3ncn(C(C)C)c23)c(F)c1F [Example 197, N-(1-(Difluoromethyl)cyclopropyl)-3,4-difluoro-5-((6-(1-((1s,3s)-3-(4-fluoropiperidin-1-yl)-3-methylcyclobutyl)-3,3-dimethyl-2-oxo-2,3-dihydro-1H-pyrrolo[3,2-b]pyridin-6-yl)-3-isopropyl-3H-imidazo[4,5-c]pyridin-4-yl)amino)-2-methylbenzamide]"
6,0.05,"CC(C)NC(=O)c1cc(Nc2nc(-c3cnc4c(c3)N([C@H]3C[C@@](C)(N5CCC6CC6C5)C3)C(=O)C4(C)C)cc3ncn(C(C)C)c23)c(F)c(F)c1Cl (stereo partly shown) [Example 254, 5-((6-(1-((1s,3s)-3-(3-azabicyclo[4.1.0]heptan-3-yl)-3-methylcyclobutyl)-3,3-dimethyl-2-oxo-2,3-dihydro-1H-pyrrolo[3,2-b]pyridin-6-yl)-3-isopropyl-3H-imidazo[4,5-c]pyridin-4-yl)amino)-2-chloro-3,4-difluoro-N-isopropylbenzamide]"
7,0.2,"Cc1c(C(=O)NC2(C(F)F)CC2)cc(Nc2nc(-c3cnc4c(c3)N([C@H]3C[C@@](C)(N5CCOC6(CC6)C5)C3)C(=O)C4(C)C)cc3ncn(C(C)C)c23)c(F)c1F [Example 193, N-(1-(Difluoromethyl)cyclopropyl)-5-((6-(3,3-dimethyl-1-((1s,3s)-3-methyl-3-(4-oxa-7-azaspiro[2.5]octan-7-yl)cyclobutyl)-2-oxo-2,3-dihydro-1H-pyrrolo[3,2-b]pyridin-6-yl)-3-isopropyl-3H-imidazo[4,5-c]pyridin-4-yl)amino)-3,4-difluoro-2-methylbenzamide]"
8,0.05,"CCNC(=O)c1cc(Nc2nc(-c3cnc4c(c3)N([C@H]3C[C@@](C)(N5CCCCCC5)C3)C(=O)C4(C)C)cc3ncn(C(C)C)c23)c(F)c(F)c1Cl [Example 247, 5-((6-(1-((1s,3s)-3-(azepan-1-yl)-3-methylcyclobutyl)-3,3-dimethyl-2-oxo-2,3-dihydro-1H-pyrrolo[3,2-b]pyridin-6-yl)-3-isopropyl-3H-imidazo[4,5-c]pyridin-4-yl)amino)-2-chloro-N-ethyl-3,4-difluorobenzamide]"
9,0.1,"Cc1c(C(=O)NC2(C(F)F)CC2)cc(Nc2nc(-c3cnc4c(c3)N([C@H]3C[C@@](C)(N5CC6CCC(C6)C5)C3)C(=O)C4(C)C)cc3ncn(C(C)C)c23)c(F)c1F [Example 230, 5-((6-(1-((1s,3s)-3-(3-Azabicyclo[3.2.1]octan-3-yl)-3-methylcyclobutyl)-3,3-dimethyl-2-oxo-2,3-dihydro-1H-pyrrolo[3,2-b]pyridin-6-yl)-3-isopropyl-3H-imidazo[4,5-c]pyridin-4-yl)amino)-N-(1-(difluoromethyl)cyclopropyl)-3,4-difluoro-2-methylbenzamide]"
